Measured values: article PMC11555501 (ACS Pharmacology & Translational Science, 2024)
Values belong to the compound of their own block, whether it stands above or below them. Non-standard residues stand in square brackets, D forms with d. Residues, ends and D or L forms follow the SMILES beside them. *: point of attachment. X1 = CN(C)c1ccc2c(c1)Oc1cc(N(C)C)ccc1C21OC(=O)c2ccc(C(=O)*)cc21; Bip = N[C@@H](Cc1ccc(-c2ccccc2)cc1)C(=O)O; Lauroyl = CCCCCCCCCCCC(=O)*

Experiments:
[1] = human blood plasma/DPBS (1:1); conditions: 37 °C, up to 72 h
[2] = HEK-293 supernatant (phenol red-free DMEM with 15% FBS); conditions: up to 72 h
[3] = Stability of Tam-labeled peptides in HEK-293 cell culture supernatant; assay type: in vitro ADME; conditions: for half-life at 10 μM: DMEM with 15% FBS on HEK-293 cells
Description: The cells were grown under standard conditions. […] The medium was replaced with the peptide solutions.

[4] = Stability of Tam-labeled peptides in human blood plasma (RP-HPLC fluorescence, MALDI-ToF-MS); conditions: for half-life at 10 μM / remaining at 72 h, 10 μM: human
Description: (§1) Peptide solutions were diluted as described above and incubated at 37 °C. Samples were precipitated in 2× ACN/EtOH (1:1, v/v) at −20 °C overnight and filtered through Costar Spin-X tubes. The solutions of Tam-labeled peptides diluted with H2O (1:1, v/v) were analyzed by RP-HPLC using a linear gradient of eluent B (0.1% TFA in H2O) in eluent A (0.08% TFA in ACN) over 40 min at 40 °C on a VariTide RPC column (250 mm × 4.6 mm, 200 Å, 6 μm, flow rate 1 mL/min, Agilent Technologies). The relative amount of intact peptide was determined by fluorescence intensity (extinction 525 nm, emission 572 nm). Half-life was calculated by one-phase decay in Prism 10. Furthermore, eluting peptides were collected, lyophilized, and analyzed by MALDI-ToF-MS.

[5] = Stability of Tam-labeled peptides in Calu-3 cell culture supernatant
Description: as §1
HEK-293 cells were cultivated under standard conditions in Dulbecco’s modified Eagle’s medium (DMEM, Biowest)/Ham’s F12 (Biowest, 1:1, v/v) with 15% fetal bovine serum (FBS, Sigma-Aldrich). HEK-293 cells were detached with trypsin/ethylenediaminetetraacetic acid (Lonza) and seeded in a poly-D-lysine hydrobromide (Merck, 0.1 mg/mL)-coated 96-well cell culture microplate (Greiner Bio-One, 100,000 cells/well). The cells were grown under standard conditions. […] Cell differentiation was supported by culturing cells on an air–liquid interface for 10–14 days and monitored by measurement of transepithelial electrical resistance. […]

not cleaved [1]: around 90% intact peptide after 72 h
not cleaved [2]: degradation of less than 10% over 72 h
Compound: GS-Dpr(Oct)-FLSPEHQRVQQRK(Tam)ESKK(Odd)PPAKLQPR

half-life at 10 μM ([3]; human, 10 μM peptide): 57.1 h
half-life at 10 μM ([4]; human blood plasma diluted with DPBS (1:1), blood plasma half-life, human blood plasma/DPBS (1:1), 10 μM peptide, 37 °C, one-phase decay): 50.5 h
half-life at 10 μM ([4]; human blood plasma diluted with DPBS (1:1), donor plasma 3, half-life in plasma 3, donor comparison, plasma 3, plasma/DPBS (1:1), 10 μM, 37 °C): 57.4 h
Compound: CCCCCCCC(=O)NC[C@H](NC(=O)[C@H](CO)NC(=O)CN)C(=O)N[C@@H](Cc1ccccc1)C(=O)N[C@@H](CC(C)C)C(=O)N[C@@H](CO)C(=O)N1CCC[C@H]1C(=O)N[C@@H](CCC(=O)O)C(=O)N[C@@H](Cc1c[nH]cn1)C(=O)N[C@@H](CCC(N)=O)C(=O)N[C@@H](CCCNC(=N)N)C(=O)N[C@H](C(=O)N[C@@H](CCC(N)=O)C(=O)N[C@@H](CCC(N)=O)C(=O)N[C@@H](CCCNC(=N)N)C(=O)N[C@@H](CCCCNC(=O)c1ccc2c(c1)C1(OC2=O)c2ccc(N(C)C)cc2Oc2cc(N(C)C)ccc21)C(=O)N[C@@H](CCC(=O)O)C(=O)N[C@@H](CO)C(=O)N[C@@H](CCCCN)C(=O)N[C@@H](CCCCN)C(=O)N1CCC[C@H]1C(=O)N1CCC[C@H]1C(=O)N[C@@H](C)C(=O)N[C@@H](CCCCN)C(=O)N[C@@H](CC(C)C)C(=O)N[C@@H](CCC(N)=O)C(=O)N1CCC[C@H]1C(=O)N[C@@H](CCCNC(=N)N)C(=O)O)C(C)C [peptide 3, [Dpr^3,K^16(Tam)]-Ghr]

cleavage products detected by MALDI-ToF MS, HEK-293 supernatant ([3]; HPLC eluents): no cleavage was observed
metabolised at 72 h, 10 μM ([3]; human, HEK-293 cell culture supernatant, 10 μM peptide, DMEM with 15% FBS, 72 h, read-out: degradation over 72 h in HEK-293 supernatant): < 10%
cleavage products detected by MALDI-ToF MS, blood plasma ([4]; HPLC eluents): no cleavage was observed
remaining at 72 h, 10 μM ([4]; human blood plasma): ~90%
cleavage products detected by MALDI-ToF MS, Calu-3 supernatant ([5]; HPLC eluents): strong C- and N-terminal truncation
Compound: CCCCCCCC(=O)NC[C@H](NC(=O)[C@H](CO)NC(=O)CN)C(=O)N[C@@H](Cc1ccccc1)C(=O)N[C@@H](CC(C)C)C(=O)N[C@@H](CO)C(=O)N1CCC[C@H]1C(=O)N[C@@H](CCC(=O)O)C(=O)N[C@@H](Cc1c[nH]cn1)C(=O)N[C@@H](CCC(N)=O)C(=O)N[C@@H](CCCNC(=N)N)C(=O)N[C@H](C(=O)N[C@@H](CCC(N)=O)C(=O)N[C@@H](CCC(N)=O)C(=O)N[C@@H](CCCNC(=N)N)C(=O)N[C@@H](CCCCNC(=O)c1ccc2c(c1)C1(OC2=O)c2ccc(N(C)C)cc2Oc2cc(N(C)C)ccc21)C(=O)N[C@@H](CCC(=O)O)C(=O)N[C@@H](CO)C(=O)N[C@@H](CCCCN)C(=O)N[C@@H](CCCCNC(=O)CCCCCCCCCCCCCCCCC(=O)O)C(=O)N1CCC[C@H]1C(=O)N1CCC[C@H]1C(=O)N[C@@H](C)C(=O)N[C@@H](CCCCN)C(=O)N[C@@H](CC(C)C)C(=O)N[C@@H](CCC(N)=O)C(=O)N1CCC[C@H]1C(=O)N[C@@H](CCCNC(=N)N)C(=O)O)C(C)C [peptide 4, [Dpr^3,K^16(Tam),K^20(Odd)]-Ghr]

Compound: CCCCCCCCCCCC(=O)NCCCC[C@H](N)C(=O)N[C@H](C(=O)N[C@@H](CC(N)=O)C(=O)N1CCC[C@H]1C(=O)N[C@@H](CCCCNC(=O)c1ccc2c(c1)C1(OC2=O)c2ccc(N(C)C)cc2Oc2cc(N(C)C)ccc21)C(=O)N[C@@H](Cc1ccc(-c2ccccc2)cc1)C(=O)N[C@@H](CCCNC(=N)N)C(=O)N[C@@H](CC(C)C)C(=O)N[C@@H](CCCNC(=N)N)C(=O)N[C@@H](Cc1ccc(O)cc1)C(N)=O)[C@@H](C)CC [peptide 2, [K^27(Lau),K^31(Tam)]-sNPY(27–36)] (H-K(Lauroyl)INPK(X1)[Bip]RLRY-NH2; N-terminus assumed)
half-life at 10 μM ([3]; human, 10 μM peptide): 23.3 h
half-life at 10 μM ([4]; plasma): 3.2 h
remaining at 72 h, 10 μM ([4]; plasma): 3%
stability in Calu-3 supernatant compared to HEK-293 supernatant [5]: only slightly lower
